Test results published in article PMC5421785, “Citrullination only infrequently impacts peptide binding to HLA class II MHC” (PLoS ONE, 2017).
Read-outs that look alike come from different tables or passages of the source. Ends that are not written are not given here.

Key:
HLA-DRB1*04:01 = molecular target: T1, HLA-DRB1*04:01 (Homo sapiens, UniProt P01903+P01911, A100K/A169T/F76Y/I96L/K127E/L162R/M171V/N62H/P40V/Q125Y/R42H/S133A/S149N/S66Y/V115G/V209L/W38E); assay: HLA class II peptide binding, inhibition of radiolabeled peptide binding to purified MHC; conditions: read-out: DRB1*04:01 binding capacity, WT peptide (IC50 nM)
T1 construct: EBV transformed homozygous cell lines were used as sources of MHC molecules; endogenous in cells; host or cells: EBV transformed homozygous cell lines

HLA-DRB1*01:01 = molecular target: T2, HLA-DRB1*01:01 (Homo sapiens, UniProt P01903+P01911, A100R/D57E/F55L/F60I/F76Y/I96L/L162R/M171V/P40L/Q125E/R42F/V115G/Y59C); assay: as above; conditions: read-out: DRB1*01:01 binding capacity, WT peptide (IC50 nM)
T2 construct: EBV transformed homozygous cell lines were used as sources of MHC molecules; endogenous in cells; host or cells: EBV transformed homozygous cell lines

[1] = wild-type (unmodified Arg) 15-mer peptide, purified HLA-DRB1*04:01
[2] = wild-type (unmodified Arg) 15-mer peptide, purified HLA-DRB1*01:01

Sequence	IC50 (HLA-DRB1*04:01; [1])	IC50 (HLA-DRB1*01:01; [2])	IC50 (HLA-DRB1*04:01)	IC50 (HLA-DRB1*01:01)
DGLAGPKGAPGERGP [Collagen 521 WT]	36900 nM	2240 nM	–	–
DGPKGARGDSGPPGR [Collagen 926 WT]	27400 nM	26700 nM	–	–
DIMRLREKLQEEMLQ [Vimentin 181 WT]	–	–	> 40000 nM	852 nM
DNASLARLDLERKVE [Vimentin 211 WT]	–	–	18800 nM	7850 nM
DNLAEDIMRLREKLQ [Vimentin 176 WT]	–	–	> 40000 nM	4570 nM
DRGDVGEKGPEGAPG [Collagen 766 WT]	21600 nM	729 nM	–	–
DVRQQYESVAAKNLQ [Vimentin 271 WT]	–	–	6370 nM	10 nM
EEEMRELRRQVDQLT [Vimentin 151 WT]	–	–	4350 nM	468 nM
EEMLQREEAENTLQS [Vimentin 191 WT]	–	–	11900 nM	704 nM
EIATYRKLLEGEESR [Vimentin 396 WT]	3520 nM	52 nM	–	–
ELRRQVDQLTNDKAR [Vimentin 156 WT]	–	–	5240 nM	568 nM
ENGSPGPMGPRGLPG [Collagen 316 WT]	> 40000 nM	> 40000 nM	–	–
ERGFPGLPGPSGEPG [Collagen 991 WT]	> 40000 nM	1280 nM	–	–
ERGLKGHRGFTGLQG [Collagen 1126 WT]	> 40000 nM	29 nM	–	–
ERGRTGPAGAAGARG [Collagen 331 WT]	> 40000 nM	1610 nM	–	–
ERKVESLQEEIAFLK [Vimentin 221 WT]	–	–	> 40000 nM	103 nM
ERQMREMEENFAVEA [Vimentin 341 WT]	912 nM	11100 nM	–	–
FAVEAANYQDTIGRL [Vimentin 351 WT]	564 nM	611 nM	–	–
FKNTRTNEKVELQEL [Vimentin 96 WT]	–	–	1790 nM	4450 nM
FRQDVDNASLARLDL [Vimentin 206 WT]	–	–	144 nM	5260 nM
FSLADAINTEFKNTR [Vimentin 86 WT]	–	–	12000 nM	68 nM
GADGPPGRDGAAGVK [Collagen 1041 WT]	> 40000 nM	> 40000 nM	–	–
